Results from patent publication US7049314B2, “Cyclopentyl indole derivatives” (Bristol-Myers Squibb Company, priority 2002, dated 2006).
Read-outs that look alike come from different tables or passages of the source.

How the values were obtained:
[1] = molecular target: T1, human serotonin transporters (Homo sapiens, UniProt P31645); test: Serotonin Transporter Binding Assay ([3H]-citalopram displacement, HEK-hSERT cell membranes)
T1 construct: expressed in transfected cells
Experimental: HEK-293 cells that stably express human serotonin transporters (HEK-hSERT cells) were grown at 37° C. in 5% CO2 as a monolayer in medium consisting of EMEM supplemented with 10% fetal bovine serum and G418 sulfate (500 μg/mL). To prepare membranes for radioligand binding experiments, cells were rinsed twice with phosphate-buffered saline (138 mM NaCl, 4.1 mM KCl, 5.1 mM Na2PO4, 1.5 mM […], 11.1 mM glucose, pH 7.4). Cells were transferred from plates to polypropylene tubes (16×100 mm), centrifuged at 1,200×g for 5 min and were frozen at −80° C. until assay. Following centrifugation, pellets were resuspended by homogenization in buffer consisting of 50 mM Tris (pH 7.7 at 25° C.), 120 mM NaCl and 5 mM KCl and then centrifuged at 32,000×g for 10 min. Following centrifugation, supernatants were discarded and pellets were resuspended in buffer consisting of 50 mM Tris (pH 7.4 at 25° C.), 150 mM NaCl and 5 mM KCl. Membrane homogenates (200 μl/plate) were incubated with 1 nM [^3H]-citalopram (specific activity=85 Ci/mMol) and increasing concentrations of test compounds for 1 hr at 25° C. in a total volume of 250 μl. The assay buffer consisted of 50 mM Tris (pH 7.4 at 25° C.), 120 mM NaCl and 5 mM KCl (pH 7.4 with conc. HCl). Plates were incubated for 1 hr at 25° C., then filtered through 0.5% PEI treated Whatman GF/B filters using a Brandel cell harvester. Filters were washed three times with 3 mL of ice-cold tris wash buffer. Non-specific binding was defined with 10 μM fluoxetine. Amount of radioligand bound in the presence and absence of competitor was analyzed by plotting (−)log drug concentration versus the amount of radioligand specifically bound. The midpoint of the displacement curve (IC50, nM), signifies the potency. Ki values were calculated using the method of Cheng and Prusoff (1973).

[2] = molecular target: T2, human norepinephrine transporters (Homo sapiens, UniProt P23975); test: Norepinephrine Transporter Binding Assay ([3H]-nisoxetine displacement, hNET cell membranes); conditions: 2.7 nM [3H]-nisoxetine, 1 hr at 4° C., read-out: NE Reuptake (binding Ki)
T2 construct: host or cells: MDCK cells (also 'HEK-hNET cells'), membrane homogenates
T2 sequence (P23975 whole entry): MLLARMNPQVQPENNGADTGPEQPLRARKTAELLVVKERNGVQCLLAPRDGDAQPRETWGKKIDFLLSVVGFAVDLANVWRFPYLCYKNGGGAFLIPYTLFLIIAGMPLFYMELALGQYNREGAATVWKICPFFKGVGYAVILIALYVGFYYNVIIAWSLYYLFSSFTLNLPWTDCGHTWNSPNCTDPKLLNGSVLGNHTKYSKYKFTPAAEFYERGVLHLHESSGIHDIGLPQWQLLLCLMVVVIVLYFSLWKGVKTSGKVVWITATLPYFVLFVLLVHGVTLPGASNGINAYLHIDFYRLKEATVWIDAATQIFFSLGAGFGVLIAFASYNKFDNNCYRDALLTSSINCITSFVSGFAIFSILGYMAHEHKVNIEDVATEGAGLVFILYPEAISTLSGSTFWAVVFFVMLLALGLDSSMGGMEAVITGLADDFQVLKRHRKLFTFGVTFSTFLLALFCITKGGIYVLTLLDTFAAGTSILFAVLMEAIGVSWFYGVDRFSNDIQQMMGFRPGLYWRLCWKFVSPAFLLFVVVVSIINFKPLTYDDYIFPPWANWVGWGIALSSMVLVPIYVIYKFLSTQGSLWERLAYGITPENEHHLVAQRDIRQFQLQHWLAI
Experimental: MDCK cells that stably express human norepinephrine transporters (HEK-hNET cells) were supplied by Receptor Biology, Inc. Pellets were resuspended by homogenization in buffer consisting of 50 mM Tris (pH 7.4 at 25° C.), 120 mM NaCl and 5 mM KCl. Membrane homogenates (200 μl/well, 8 ug protein) were incubated with 2.7 nM [^3H]-nisoxetine (specific activity=80 Ci/mMol) and increasing concentrations of test compounds for 1 hr at 4° C. in a total volume of 250 μl. The assay buffer consisted of 50 mM Tris (pH 7.4 at 25° C.), 120 mM NaCl and 5 mM KCl (pH 7.4 with conc. HCl). Plates were incubated for 1 hr at 4° C., then filtered through 0.5% PEI treated Whatman GF/B filters using a Brandel cell harvester. Filters were washed three times with 3 mL of ice-cold tris wash buffer. Non-specific binding was defined with 10 μM desipramine. Amount of radioligand bound in the presence and absence of competitor was analyzed by plotting (−)log drug concentration versus the amount of radioligand specifically bound. The midpoint of the displacement curve (IC50, nM), signifies the potency. Ki values were calculated using the method of Cheng and Prusoff (1973).

[3] = HEK-hSERT membranes, 1 nM [3H]-citalopram, 1 hr at 25° C., read-out: SERT (binding Ki)

T1 sequence (P31645 whole entry): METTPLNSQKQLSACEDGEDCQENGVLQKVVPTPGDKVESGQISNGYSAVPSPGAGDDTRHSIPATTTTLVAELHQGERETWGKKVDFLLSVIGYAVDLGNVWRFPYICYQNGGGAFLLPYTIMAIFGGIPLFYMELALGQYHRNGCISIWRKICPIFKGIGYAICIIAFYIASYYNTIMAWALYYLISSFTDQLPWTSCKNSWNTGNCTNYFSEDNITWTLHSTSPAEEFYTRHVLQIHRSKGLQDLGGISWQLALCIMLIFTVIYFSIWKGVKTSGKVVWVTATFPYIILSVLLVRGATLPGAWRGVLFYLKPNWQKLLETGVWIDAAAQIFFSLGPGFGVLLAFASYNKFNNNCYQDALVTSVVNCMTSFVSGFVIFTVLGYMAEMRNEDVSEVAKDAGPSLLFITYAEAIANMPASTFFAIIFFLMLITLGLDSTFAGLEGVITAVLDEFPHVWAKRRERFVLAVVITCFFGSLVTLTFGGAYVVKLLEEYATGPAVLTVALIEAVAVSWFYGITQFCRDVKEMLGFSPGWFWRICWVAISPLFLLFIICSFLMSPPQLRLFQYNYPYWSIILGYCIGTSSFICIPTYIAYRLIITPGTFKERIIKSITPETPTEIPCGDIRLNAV

| Ki [1, 3] [nM] | SMILES | Ki [1] [nM] | Ki [2] [nM] |
| --- | --- | --- | --- |
| – | CCN(C)C1CCC(c2c[nH]c3ccc(F)cc23)C1 (stereo not drawn) [Compound 34, Ethyl-[3-(5-fluoro-1H-indol-3-yl)cyclopentyl]-methyl-amine] | 1 to 10 | > 1000 |
| – | CCN(C)C1CCC(c2cn(C)c3ccc(C#N)cc23)C1 (stereo not drawn) [Compound 22, 3-[3-(Ethyl-methyl-amino)-cyclopentyl]-1-methyl-1H-indole-5-carbonitrile] | 1 to 10 | > 1000 |
| – | CCNC1CCC(c2cn(C)c3ccc(C#N)cc23)C1 (stereo not drawn) [Compound 18, 3-(3-Ethylamino-cyclopentyl)-1-methyl-1H-indole-5-carbonitrile] | < 1 | > 1000 |
| – | Fc1ccc2[nH]cc(C3CCC(N4CCCC4)C3)c2c1 (stereo not drawn) [Compound 36] | 1 to 10 | > 1000 |
| – | CCN(CC)C1CCC(c2cn(C)c3ccc(C#N)cc23)C1 (stereo not drawn) [Compound 23, 3-(3-Diethylamino-cyclopentyl)-1-methyl-1H-indole-5-carbonitrile] | < 1 | > 1000 |
| 1 to 10 | CN(Cc1ccccc1)C1CCC(c2c[nH]c3ccc(C#N)cc23)C1 (stereo not drawn) [Compound 12, 3-[3-(Benzyl-methyl-amino)-cyclopentyl]-1H-indole-5-carbonitrile] | – | 100 to 1000 |
| 1 to 10 | CCn1cc([C@@H]2CC[C@@H](N(C)C)C2)c2cc(C#N)ccc21 [Compound 59, (1R,3R)-3-(3-Dimethylamino-cyclopentyl)-1-ethyl-1H-indole-5-carbonitrile] | – | > 1000 |
| – | Cn1cc(C2CCC(N3CCCC3)C2)c2cc(C#N)ccc21 (stereo not drawn) [Compound 24, 1-Methyl-3-(3-pyrrolidin-1-yl-cyclopentyl)-1H-indole-5-carbonitrile] | 1 to 10 | > 1000 |
| 1 to 10 | CCn1cc(C2CCC(N(C)Cc3ccccc3)C2)c2cc(C#N)ccc21 (stereo not drawn) [Compound 31, 3-[3-(Benzyl-methyl-amino)-cyclopentyl]-1-ethyl-1H-indole-5-carbonitrile] | – | > 1000 |
| < 1 | Cn1cc(C2CCC(N3CCCCC3)C2)c2cc(C#N)ccc21 (stereo not drawn) [Compound 25, 1-Methyl-3-(3-piperidin-1-yl-cyclopentyl)-1H-indole-5-carbonitrile] | – | > 1000 |
| – | CCNC1CCC(c2c[nH]c3ccc(C#N)cc23)C1 (stereo not drawn) [Compound 2, 3-(3-Ethylamino-cyclopentyl)-1H-indole-5-carbonitrile] | 1 to 10 | > 1000 |
| 1 to 10 | N#Cc1ccc2[nH]cc(C3CCC(NCCc4ccccc4)C3)c2c1 (stereo not drawn) [Compound 9, 3-(3-Phenethylamino-cyclopentyl)-1H-indole-5-carbonitrile] | – | 100 to 1000 |
| 1 to 10 | CN(CCc1ccccc1)C1CCC(c2c[nH]c3ccc(C#N)cc23)C1 (stereo not drawn) [Compound 10, 3-[3-(Methyl-phenethyl-amino)-cyclopentyl]-1H-indole-5-carbonitrile] | – | 100 to 1000 |
| – | CN(C)C1CCC(c2cn(C)c3ccc(C#N)cc23)C1 (stereo not drawn) [Compound 21, 3-(3-Dimethylamino-cyclopentyl)-1-methyl-1H-indole-5-carbonitrile] | 1 to 10 | > 1000 |
| – | N#Cc1ccc2[nH]cc(C3CCC(N4CCOCC4)C3)c2c1 (stereo not drawn) [Compound 11, 3-(3-Morpholin-4-yl-cyclopentyl)-1H-indole-5-carbonitrile] | < 1 | > 1000 |
| – | N#Cc1ccc2[nH]cc(C3CCC(N4CCCCC4)C3)c2c1 (stereo not drawn) [Compound 14, 3-(3-Piperidin-1-yl-cyclopentyl)-1H-indole-5-carbonitrile] | < 1 | > 1000 |
| < 1 | Cn1cc(C2CCC(N3CCOCC3)C2)c2cc(C#N)ccc21 (stereo not drawn) [Compound 26, 1-Methyl-3-(3-morpholin-4-yl-cyclopentyl)-1H-indole-5-carbonitrile] | – | > 1000 |
| – | CNC1CCC(c2c[nH]c3ccc(C#N)cc23)C1 (stereo not drawn) [Compound 1, 3-(3-Methylamino-cyclopentyl)-1H-indole-5-carbonitrile] | 1 to 10 | > 1000 |

| SMILES | Ki [1, 3] [nM] | Ki [1] [nM] | Ki [2] [nM] |
| --- | --- | --- | --- |
| CN(C)[C@@H]1CC[C@H](c2c[nH]c3ccc(C#N)cc23)C1 [Compound 48, (1S,3R)-3-(3-dimethylaminocyclopentyl)-1H-indole-5-carbonitrile] | < 1 | – | > 1000 |
| CN(C)[C@H]1CC[C@@H](c2c[nH]c3ccc(F)cc23)C1 [Compound 55, (1S,3R)-3-(5-fluoro-1H-indol-3-yl)-cyclopentyl-dimethylamine] | 1 to 10 | – | > 1000 |
| CCN(C)C1CCC(c2c[nH]c3ccc(C#N)cc23)C1 (stereo not drawn) [Compound 4, 3-[3-(Ethyl-methyl-amino)-cyclopentyl]-1H-indole-5-carbonitrile] | 1 to 10 | – | > 1000 |
| CN(C)C1CCC(c2c[nH]c3ccc(C#N)cc23)C1 (stereo not drawn) [Compound 3, 3-(3-Dimethylamino-cyclopentyl)-1H-indole-5-carbonitrile] | < 1 | – | > 1000 |
| CN(C)[C@H]1CC[C@H](c2c[nH]c3ccc(F)cc23)C1 [Compound 52, (1S,3S)-3-(5-fluoro-1H-indol-3-yl)-cyclopentyl-dimethylamine] | 1 to 10 | – | > 1000 |
| CN(C)[C@@H]1CC[C@@H](c2c[nH]c3ccc(F)cc23)C1 [Compound 54, (1R,3R)-3-(5-fluoro-1H-indol-3-yl)-cyclopentyl-dimethylamine] | 1 to 10 | – | > 1000 |
